# Where two headings read alike, the source gives them in different places.
# Columns and labels:
# Rhesus PDE2A3 = Rhesus PDE2A3 (Macaca mulatta, UniProt B3VTJ2); test: PDE2 fluorescence polarization (IMAP FP) assay, rhesus PDE2A3; assay type: biochemical, rhesus macaque
# Procedure: A Labcyte Echo 555 (Labcyte, Sunnyvale, Calif.) is used to dispense 200 nL from each well of the titration plate to the 384 well assay plate. Ten microliters of a solution of enzyme (1/2000 final dilution from aliquots; sufficient to produce 20% substrate conversion) was added to the assay plate. Next 10 uL of a separate solution of the substrate FAM-labeled cAMP (50 nM final concentration product # R7506 from Molecular Devices) and the activator cGMP (1 uM final concentration), prepared in the assay buffer (10 mM Tris HCl, pH 7.2, 10 mM MgCl2, 0.05% NaN3 0.01% Tween-20, and 1 mM DTT) was added to the assay plate and shaken to mix. The reaction is allowed to proceed at room temperature for 60 minutes. A binding solution is then made from the kit components, comprised of 80% Solution A, 20% Solution B and binding reagent at a volume of 1/600 the total binding solution. The enzymatic reaction is stopped by addition of 60 μL of the binding solution to each well of the assay plates and the plates are sealed and shaken for 30 seconds. The plate was incubated at room temperature for at least one hour prior to determining the fluorescence polarization (FP). The parallel and perpendicular fluorescence of each well of the plate was measured using a Tecan Genios Pro plate reader (Tecan, Switzerland) or Perkin Elmer EnVision™ plate reader (Waltham, Mass.). Fluorescence polarization (mP) was calculated from the parallel (S) and perpendicular (P) fluorescence of each sample well and the analogous values for the median control well, containing only substrate (So and Po), using the following equation: Polarization (mP)=1000*(S/So−P/Po)/(S/So+P/Po).
# Dose-inhibition profiles for each compound were characterized by fitting the mP data to a four-parameter equation given below.
# An apparent (KM) for FAM-labeled cAMP of ˜10 uM was used.
# human PDE2A1 = human PDE2A1 (Homo sapiens (Human), UniProt O00408); test: PDE selectivity IMAP FP assay, human PDE2A1; assay type: biochemical; conditions: Human PDE2; Lab B; read-out: Human PDE2 Ki (nM) Lab B
# Summary of the method: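 IMAP fluorescence polarization assay; PDE2 substrate 50 nM FAM-cAMP containing 1000 nM cGMP, enzyme diluted for 20% substrate conversion, in 10 mM Tris HCl pH 7.2, 10 mM MgCl2, 1 mM DTT. Reaction 60 min at room temperature, stopped with IMAP binding solution; polarization read after 1 h. Ki reported.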
# [1] = Lab B, read-out: Rhesus PDE2 Ki (nM) Lab B
# [2] = Lab A, read-out: Rhesus PDE2 Ki (nM) Lab A
# Sequence of Rhesus PDE2A3 (B3VTJ2 1-941): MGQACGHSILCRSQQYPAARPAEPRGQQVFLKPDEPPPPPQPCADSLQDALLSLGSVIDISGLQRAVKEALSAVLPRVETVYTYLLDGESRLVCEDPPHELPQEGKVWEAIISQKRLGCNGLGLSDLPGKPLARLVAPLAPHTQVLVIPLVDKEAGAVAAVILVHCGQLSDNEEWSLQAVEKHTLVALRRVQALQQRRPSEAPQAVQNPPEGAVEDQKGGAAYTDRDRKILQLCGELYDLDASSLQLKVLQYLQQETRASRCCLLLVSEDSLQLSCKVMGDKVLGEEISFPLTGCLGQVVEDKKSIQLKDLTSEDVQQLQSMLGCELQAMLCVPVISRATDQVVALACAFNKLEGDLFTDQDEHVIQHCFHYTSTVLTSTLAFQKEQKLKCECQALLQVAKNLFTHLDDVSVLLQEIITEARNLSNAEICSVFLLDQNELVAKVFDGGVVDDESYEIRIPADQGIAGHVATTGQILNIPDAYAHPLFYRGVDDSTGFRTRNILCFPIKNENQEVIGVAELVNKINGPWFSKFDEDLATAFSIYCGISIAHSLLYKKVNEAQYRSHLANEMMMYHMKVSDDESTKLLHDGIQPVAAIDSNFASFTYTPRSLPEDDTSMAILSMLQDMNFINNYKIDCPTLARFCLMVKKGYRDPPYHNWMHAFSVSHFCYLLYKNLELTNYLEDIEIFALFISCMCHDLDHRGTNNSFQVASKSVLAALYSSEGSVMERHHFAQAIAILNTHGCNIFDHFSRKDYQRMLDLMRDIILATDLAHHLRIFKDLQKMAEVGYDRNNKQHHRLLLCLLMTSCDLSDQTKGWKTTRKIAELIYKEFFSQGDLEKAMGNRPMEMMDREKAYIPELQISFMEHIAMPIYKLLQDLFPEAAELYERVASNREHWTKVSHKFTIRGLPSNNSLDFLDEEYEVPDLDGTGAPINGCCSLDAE
# Sequence of human PDE2A1 (O00408 other isoform, or with tags, fused parts or gaps): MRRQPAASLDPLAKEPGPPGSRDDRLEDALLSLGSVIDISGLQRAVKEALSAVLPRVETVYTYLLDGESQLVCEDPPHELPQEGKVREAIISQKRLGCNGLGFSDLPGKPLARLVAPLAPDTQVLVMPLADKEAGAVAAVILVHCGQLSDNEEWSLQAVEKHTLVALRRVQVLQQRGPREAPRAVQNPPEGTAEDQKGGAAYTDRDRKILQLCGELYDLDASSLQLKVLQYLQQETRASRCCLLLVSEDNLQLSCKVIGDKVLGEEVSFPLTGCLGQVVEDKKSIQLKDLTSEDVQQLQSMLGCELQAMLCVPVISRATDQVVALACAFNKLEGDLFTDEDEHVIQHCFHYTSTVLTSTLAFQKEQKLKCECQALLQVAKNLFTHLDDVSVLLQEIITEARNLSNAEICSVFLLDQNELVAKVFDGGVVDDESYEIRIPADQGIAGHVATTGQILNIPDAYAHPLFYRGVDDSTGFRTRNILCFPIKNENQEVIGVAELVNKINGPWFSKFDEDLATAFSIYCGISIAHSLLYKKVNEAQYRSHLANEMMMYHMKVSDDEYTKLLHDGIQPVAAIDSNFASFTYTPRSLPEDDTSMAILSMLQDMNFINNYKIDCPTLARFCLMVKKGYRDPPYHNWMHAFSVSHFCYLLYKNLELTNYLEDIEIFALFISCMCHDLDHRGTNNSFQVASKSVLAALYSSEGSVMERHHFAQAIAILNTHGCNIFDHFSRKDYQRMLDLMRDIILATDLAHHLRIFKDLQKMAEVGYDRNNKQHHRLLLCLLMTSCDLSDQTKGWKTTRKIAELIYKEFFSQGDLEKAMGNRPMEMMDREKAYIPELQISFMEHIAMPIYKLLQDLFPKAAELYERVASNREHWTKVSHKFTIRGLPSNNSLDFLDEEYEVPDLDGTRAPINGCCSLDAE
Ki (Rhesus PDE2A3; [1]) [nM],Ki (human PDE2A1) [nM],Ki (Rhesus PDE2A3; [2]) [nM],Structure (SMILES)
2.4,2.1,,"C[C@H](c1ccc(C(F)(F)F)c(F)c1)n1nc(CF)c2c(=O)[nH]c(O)nc21 (mixture of isomers) [Example 34, (R)- and (S)-1-(1-(3-Fluoro-4-(trifluoromethyl)phenyl)ethyl)-3-(fluoromethyl)-6-hydroxy-H-pyrazolo[3,4-d]pyrimidin-4(5H)-one]"
13,9.6,,"CC(c1ccc(OC(F)(F)F)c(F)c1)n1nc(CC(F)(F)F)c2c(=O)[nH]c(O)nc21 (racemic) [Example 229, 1-(1-(3-Fluoro-4-(trifluoromethoxy)phenyl)ethyl)-6-hydroxy-3-(2,2,2-trifluoroethyl)-1H-pyrazolo[3,4-d]pyrimidin-4(5H)-one]"
150,,,"O=c1[nH]c(O)nc2c1c(CC(F)(F)F)nn2C(c1ccc(OC(F)(F)F)cc1)C1CC1 (single isomer, unassigned) [Example 242, (R)- or (S)-1-(Cyclopropyl(4-(trifluoromethoxy)phenyl)methyl)-6-hydroxy-3-(2,2,2-trifluoroelhyl)-1H-pyrazolo[3,4-d]pyrimidin-4(5H)-one]"
191,,,"O=c1[nH]c(O)nc2c1c(CC(F)(F)F)nn2C(c1ccc(OC(F)(F)F)cc1)C1CC1 (single isomer, unassigned) [Example 243, (S)- or (R)-1-(Cyclopropyl(4-(trifluoromethoxy)phenyl)methyl)-6-hydroxy-3-(2,2,2-trifluoroelhyl)-1H-pyrazolo[3,4-d]pyrimidin-4(5H)-one]"
698,,,"CC1(C(c2ccc(C(F)(F)F)cc2)n2nc(CC(F)(F)F)c3c(=O)[nH]c(O)nc32)CC1 (single isomer, unassigned) [Example 245, (S)- or (R)-6-Hydroxy-l-((1-methylcyclopropyl)(4-(trifluoromethyl)phenyl)methyl)-3-(2,2,2-trifluoroethyl)-1H-pyrazolo[3,4-d]pyrimidin-4(5H)-one]"
363,,,"CC(C)(C)c1ccc(C(C2CC2)n2nc(CC(F)(F)F)c3c(=O)[nH]c(O)nc32)cc1 (single isomer, unassigned) [Example 251, (S)- or (R)-1-((4-tert-Butylphenyl)(cyclopropyl)methyl)-6-hydroxy-3-(2,2,2-trifluoroethyl)-1H-pyrazolo[3,4-d]pyrimidin-4(5H)-one]"
120,,,"O=c1[nH]c(O)nc2c1c(CC(F)(F)F)nn2C(c1ccc(OC(F)(F)F)c(F)c1)C1CC1 (single isomer, unassigned) [Example 253, (S)- or (R)-1-(Cyclopropyl(3-fluoro-4-(trifluoromethoxy)phenyl)methyl)-6-hydroxy-3-(2,2,2-trifluoroethyl)-1H-pyrazolo[3,4-d]pyrimidin-4(5H)-one]"
148,,,"CC(C)C(c1ccc(C(F)(F)F)c(F)c1)n1nc(CC(F)(F)F)c2c(=O)[nH]c(O)nc21 (single isomer, unassigned) [Example 259]"
~1400,,,"CC(C)C(c1ccc(C(C)(C)C)cc1)n1nc(CC(F)(F)F)c2c(=O)[nH]c(O)nc21 (single isomer, unassigned) [Example 261, (S)- or (R)-1-(1-(4-tert-Butylphenyl)-2-methylpropyl)-6-hydroxy-3-(2,2,2-trifluoroethyl)-1H-pyrazolo[3,4-d]pyrimidin-4(5H)-one]"
334,,,"CC(C)(C)C(c1ccc(C(F)(F)F)cc1)n1nc(CC(F)(F)F)c2c(=O)[nH]c(O)nc21 (single isomer, unassigned) [Example 262, (R)- or (S)-1-(2,2-Dimethyl-1-(4-(trifluoromethyl)phenyl)propyl)-6-hydroxy-3-(2,2,2-trifluoroethyl)-1H-pyrazolo[3,4-d]pyrimidin-4(5H)-one]"
5890,,,"CC(C)(C)C(c1ccc(C(F)(F)F)cc1)n1nc(CC(F)(F)F)c2c(=O)[nH]c(O)nc21 (single isomer, unassigned) [Example 263, (S)- or (R)-1-(2,2-Dimethyl-1-(4-(trifluoromethyl)phenyl)propyl)-6-hydroxy-3-(2,2,2-trifluoroethyl)-1H-pyrazolo[3,4-d]pyrimidin-4(5H)-one]"
600,,,"CC(C)C(c1ccc(OC(F)(F)F)c(F)c1)n1nc(CC(F)(F)F)c2c(=O)[nH]c(O)nc21 (single isomer, unassigned) [Example 264, (R)- or (S)-1-(1-(3-Fluoro-4-(trifluoromethoxy)phenyl)-2-methylpropyl)-6-hydroxy-3-(2,2,2-trifluoroethyl)-1H-pyrazolo[3,4-d]pyrimidin-4(5H)-one]"
276,,,"CC(C)C(c1ccc(OC(F)(F)F)c(F)c1)n1nc(CC(F)(F)F)c2c(=O)[nH]c(O)nc21 (single isomer, unassigned) [Example 265, (S)- or (R)-1-(1-(3-Fluoro-4-(trifluoromethoxy)phenyl)-2-methylpropyl)-6-hydroxy-3-(2,2,2-trifluoroethyl)-1H-pyrazolo[3,4-d]pyrimidin-4(5H)-one]"
448,,,"CC(c1ccc(C(F)(F)F)cc1)n1nc(C(F)(F)C(F)(F)F)c2c(=O)[nH]c(O)nc21 (single isomer, unassigned) [Example 267, (S)- or (R)-6-Hydroxy-3-(perfluoroethyl)-1-(1-(4-(trifluoromethyl)phenyl)ethyl)-1H-pyrazolo[3,4-d]pyrimidin-4(5H)-one]"
113,,,"CC(c1ccc(OC(F)(F)F)cc1)n1nc(C(F)F)c2c(=O)[nH]c(O)nc21 (single isomer, unassigned) [Example 273, (R)- or (S)-3-(Difluoromethyl)-6-hydroxy-1-(1-(4-(trifluoromethoxy)phenyl)ethyl)-1H-pyrazolo[3,4-d]pyrimidin-4(5H)-one]"
85,,,"O=c1[nH]c(O)nc2c1c(C(F)F)nn2C(c1ccc(C(F)(F)F)cc1)C1CC1 (single isomer, unassigned) [Example 280, (S)- or (R)-1-(Cyclopropyl(4-(trifluoromethyl)phenyl)methyl)-3-(difluoromethyl)-6-hydroxy-1H-pyrazolo[3,4-d]pyrimidin-4(5H)-one]"
~1510,,,"CC(C)(C)C(c1ccc(C(F)(F)F)cc1)n1nc(C(F)F)c2c(=O)[nH]c(O)nc21 (single isomer, unassigned) [Example 283, (R)- or (S)-3-(Difluoromethyl)-1-(2,2-dimethyl-1-(4-(trifluoromethyl)phenyl)propyl)-6-hydroxy-1H-pyrazolo[3,4-d]pyrimidin-4(5H)-one]"
206,,,"CC(C)(C)C(c1ccc(C(F)(F)F)cc1)n1nc(C(F)F)c2c(=O)[nH]c(O)nc21 (single isomer, unassigned) [Example 284, (S)- or (R)-3-(Difluoromethyl)-1-(2,2-dimethyl-1-(4-(trifluoromethyl)phenyl)propyl)-6-hydroxy-1H-pyrazolo[3,4-d]pyrimidin-4(5H)-one]"
232,,,"CCC(c1ccc(C(F)(F)F)cc1)n1nc(C(F)F)c2c(=O)[nH]c(O)nc21 (single isomer, unassigned) [Example 285, (R)- or (S)-3-(Difluoromethyl)-6-hydroxy-1-(1-(4-(trifluoromethyl)phenyl)propyl)-1H-pyrazolo[3,4-d]pyrimidin-4(5H)-one]"
207,,,"N#CCc1nn(C(c2ccc(C(F)(F)F)cc2)C2CC2)c2nc(O)[nH]c(=O)c12 (single isomer, unassigned) [Example 297]"
101,,,"CC(c1ccc(OC(F)(F)F)c(F)c1)n1nc(CC#N)c2c(=O)[nH]c(O)nc21 (single isomer, unassigned) [Example 300, (S)- or (R)-2-(1-(1-(3-Fluoro-4-(trifluoromethoxy)phenyl)ethyl)-6-hydroxy-4-oxo-4,5-dihydro-1H-pyrazolo[3,4-d]pyrimidin-3-yl)acetonitrile]"
,,411,Cc1ccc(C(C)n2nc(CO)c3c(=O)[nH]c(O)nc32)cc1 (stereo not drawn) [Example 8]
,,~548,"O=c1[nH]c(O)nc2c1c(CO)nn2Cc1ccc(C(F)(F)F)cc1 [Example 9, 6-Hydroxy-3-(hydroxymethyl)-1-[4-(trifluoromethyl)benzyl]-1,5-dihydro-4H-pyrazolo[3,4-d]pyrimidin-4-one]"
,,~951,"Cc1nn(Cc2ccc(C(F)(F)F)cc2)c2nc(O)[nH]c(=O)c12 [Example 61, 6-Hydroxy-3-methyl-1-[4-(trifluoromethyl)benzyl]-1,5-dihydro-4H-pyrazolo[3,4-d]pyrimidin-4-one]"
206,,,"C[C@@H](c1ccc(C(F)(F)F)cc1)n1nc(COCc2ccccc2)c2c(=O)[nH]c(O)nc21 [Example 303, (S)-3-((Benzyloxy)methyl)-6-hydroxy-1-(1-(4-(trifluoromethyl)phenyl)ethyl)-1,5-dihydro-4H-pyrazolo[3,4-d]pyrimidin-4-one]"
